System: Rattus norvegicus
Experiment: Percentage inhibition of edema formation in rat after 3 hours of treatment with the compound at a dosage of 30 mg/Kg
Assay type: functional

Row | SMILES | inhibition in vivo at 30 mg/kg [%]
1 | Nc1cc2c(cc1C[C@@H]1COC(=O)[C@H]1Cc1cc3c(cc1N)OCO3)OCO2 | 82
2 | O=C1OC[C@@H](Cc2cc3c(cc2[N+](=O)[O-])OCO3)[C@@H]1Cc1cc2c(cc1[N+](=O)[O-])OCO2 | 54
3 | O=C1OC[C@@H](Cc2ccc3c(c2)OCO3)[C@@H]1Cc1ccc2c(c1)OCO2 | 63
4 | OC1OC[C@@H](Cc2ccc3c(c2)OCO3)[C@@H]1Cc1ccc2c(c1)OCO2 (some centres undefined) | 53
